The values below come from ChEMBL document CHEMBL1201862, “PubChem BioAssay data set” (2004).

Among the test systems are CAKI-1; SK-OV-3; HCT-116; RXF 393; NCI-H226; TK-10; EKVX; SF-268; Hs-578T; HT-29; HCT-15; UACC-62; HL-60; MCF7; OVCAR-4; UACC-257; CCRF-CEM; PC-3; NCI/ADR-RES.
Common to all, as to test: NCI-60 cell line screen, 48 h

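Dose response: 5 concentrations. Exposure: 48 h. Format: 96-well plates. Endpoint: linear interpolation; highest concentration if not reached. GI50 is the concentration that inhibits growth by half.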 Active and inactive are the calls of the source. No stated cut-off is given here; in the data, active = GI50 up to about 1.1 µM and inactive = higher.

In the case of `O=[N+]([O-])C(=C1Nc2ccccc2N1)C(Cl)=C(Cl)Cl`, the GI50 in the test with CAKI-1 was > 100 µM (inactive); in the test with SK-OV-3, > 100 µM (inactive); in the test on HCT-116, 88.1 µM (inactive); with RXF 393, 99.1 µM (inactive); in the test on NCI-H226, > 100 µM (inactive); in the test with TK-10, > 100 µM (inactive). The GI50 was > 100 µM (inactive) in the test on EKVX; 44.1 µM (inactive) with SF-268; 49.8 µM (inactive) in the test with Hs-578T; > 100 µM (inactive) in the test with HT-29; 38.2 µM in the test on HCT-15; > 100 µM (inactive) with UACC-62. Moreover, the GI50 is 65.6 µM (inactive) with HL-60; 39.7 µM (inactive) in the test with MCF7; 27 µM (inactive) in the test with OVCAR-4; > 100 µM (inactive) in the test with UACC-257; 32.4 µM (inactive) in the test on CCRF-CEM; > 100 µM (inactive) in the test on PC-3.

For the compound `N#Cc1ccc(Oc2nc3ccccc3nc2-c2ccccc2)cc1`, the GI50 in the test with CAKI-1, in the test on SK-OV-3, in the test on HCT-116, with RXF 393, with NCI-H226 and in the test on TK-10 was > 100 µM (inactive) in each case. Moreover, the GI50 in the test on EKVX was > 100 µM (inactive); in the test on SF-268 it was > 100 µM (inactive); in the test on Hs-578T, > 100 µM (inactive); with HT-29, > 100 µM (inactive); with HCT-15, more than 100 µM; in the test on UACC-62, > 100 µM (inactive). In addition, the GI50 with HL-60, in the test with MCF7, in the test on OVCAR-4, in the test on UACC-257, in the test with CCRF-CEM and in the test on PC-3 was > 100 µM (inactive) throughout.

Take `O=C1C2=Cc3ccccc3OC2(O)Oc2cc3ccccc3cc21` (stereo not given): the GI50 in the test with CAKI-1 was > 100 µM (inactive); in the test with SK-OV-3 it was 56.5 µM (inactive); in the test with HCT-116 it was > 100 µM (inactive); in the test with NCI/ADR-RES, > 100 µM (inactive); in the test on RXF 393 it was 58.1 µM (inactive); in the test with NCI-H226, 56.1 µM (inactive). Also, the GI50 was > 100 µM (inactive) with TK-10; > 100 µM (inactive) in the test on EKVX; 36.1 µM (inactive) in the test with SF-268; > 100 µM (inactive) in the test with HT-29; more than 100 µM in the test on HCT-15; > 100 µM (inactive) in the test on UACC-62. Further, the GI50 with MCF7 is > 100 µM (inactive); in the test on OVCAR-4 it was 49.7 µM (inactive); with UACC-257 it was > 100 µM (inactive); with CCRF-CEM, > 100 µM (inactive); in the test with PC-3, > 100 µM (inactive).

Turning to `O=C(O)CN1CCNCCN(CP(=O)(O)O)CC1`, the GI50 is > 100 µM (inactive) in the test on CAKI-1; 11.8 µM (inactive) in the test on SK-OV-3; 3.87 µM (inactive) in the test on HCT-116; 6.89 µM (inactive) in the test with RXF 393; > 39.1 µM (inactive) in the test on NCI-H226; > 37.2 µM (inactive) in the test on TK-10. Further, the GI50 in the test with EKVX was 13.2 µM (inactive); in the test on SF-268 it was 22.3 µM (inactive); in the test with Hs-578T, > 30.1 µM (inactive); in the test on HT-29 it was 2.02 µM (inactive); in the test on HCT-15, 4.25 µM; with UACC-62, 8.69 µM (inactive). Also, the GI50 in the test with HL-60 was 3.22 µM (inactive); in the test on MCF7, 6.22 µM (inactive); in the test on OVCAR-4 it was 24.6 µM (inactive); in the test on UACC-257, > 33.8 µM (inactive); with CCRF-CEM, 4.94 µM (inactive); in the test on PC-3, 9.73 µM (inactive).

As for `O=c1oc2ccccc2c(-c2ccc(O)cc2)c1Oc1ccccc1`, the GI50 with CAKI-1 is 24.5 µM (inactive); in the test on SK-OV-3 it was 34.8 µM (inactive); in the test with HCT-116, 20 µM (inactive); with RXF 393, 23 µM (inactive); in the test with NCI-H226, > 47 µM (inactive); in the test with TK-10, 8.05 µM (inactive). The GI50 in the test on EKVX is 15.7 µM (inactive); with SF-268 it was 8.57 µM (inactive); in the test on Hs-578T it was 7.5 µM (inactive); with HT-29, > 52.1 µM (inactive); in the test on HCT-15 it was 7.83 µM; in the test with UACC-62, 5.18 µM (inactive). The GI50 was 54 µM (inactive) with HL-60; 11.2 µM (inactive) in the test on MCF7; 20.4 µM (inactive) in the test on OVCAR-4; 7.83 µM (inactive) with UACC-257; 25.4 µM (inactive) with CCRF-CEM; 8.49 µM (inactive) in the test on PC-3.

With `O=c1c2ccccc2nc(-c2cccc(Cl)c2)n1NCC1(O)OCC(O)C(O)C1O` (stereo not given), the GI50 with CAKI-1 was > 100 µM (inactive); in the test with SK-OV-3, > 100 µM (inactive); with HCT-116, > 100 µM (inactive); in the test on RXF 393, 51.9 µM (inactive); in the test with NCI-H226, > 100 µM (inactive); with EKVX, > 100 µM (inactive). For the same compound, the GI50 was > 100 µM (inactive) in the test on SF-268; > 100 µM (inactive) in the test with HT-29; more than 100 µM in the test with HCT-15; > 100 µM (inactive) in the test with UACC-62; 30.7 µM (inactive) in the test on HL-60; > 100 µM (inactive) in the test with OVCAR-4. For the same compound, the GI50 in the test on UACC-257 was > 100 µM (inactive); in the test on CCRF-CEM, 41.7 µM (inactive).

Turning to `CCOC(=O)C(=O)N/N=C1\C(=O)Nc2ccccc21`, the GI50 in the test with CAKI-1, in the test on SK-OV-3, in the test on HCT-116, in the test with NCI/ADR-RES, in the test with RXF 393 and with NCI-H226 was > 100 µM (inactive) in each case. For the same compound, the GI50 in the test on TK-10 is > 100 µM (inactive); with EKVX it was > 100 µM (inactive); in the test on SF-268, > 100 µM (inactive); in the test on HCT-15 it was more than 100 µM; in the test on UACC-62 it was > 100 µM (inactive); in the test on MCF7, > 100 µM (inactive). In addition, the GI50 in the test on OVCAR-4, in the test with UACC-257, in the test with CCRF-CEM and in the test with PC-3 was > 100 µM (inactive) throughout.

With `CCOP(=O)(OCC)[C@H](O)c1ccsc1`, the GI50 with CAKI-1, with SK-OV-3, with HCT-116, in the test on NCI/ADR-RES, with RXF 393 and in the test with NCI-H226 was > 100 µM (inactive) throughout. Further, the GI50 in the test with TK-10 was > 100 µM (inactive); with EKVX it was > 100 µM (inactive); in the test on SF-268 it was > 100 µM (inactive); in the test on HT-29 it was > 100 µM (inactive); in the test with HCT-15, more than 100 µM; in the test on UACC-62 it was > 100 µM (inactive). Besides, the GI50 with MCF7, in the test on OVCAR-4, in the test on UACC-257, in the test on CCRF-CEM and in the test on PC-3 was > 100 µM (inactive) throughout.

`CCOC(=O)c1[nH]c(COC(C)=O)c(CCCOC(C)=O)c1CCCOC(C)=O`: the GI50 in the test on CAKI-1, in the test on SK-OV-3, in the test on HCT-116, with RXF 393, in the test on NCI-H226 and in the test with TK-10 was > 100 µM (inactive) throughout. For the same compound, the GI50 with EKVX was > 100 µM (inactive); in the test on SF-268, > 100 µM (inactive); in the test with HT-29, > 100 µM (inactive); in the test with HCT-15, more than 100 µM; with HL-60, > 100 µM (inactive); in the test on OVCAR-4 it was > 100 µM (inactive). In addition, the GI50 in the test with UACC-257 and with CCRF-CEM was > 100 µM (inactive) in each case.

Regarding `COc1cc(S(=O)(=O)Nc2nc(-c3ccc(N4C(=O)/C(=C/c5ccccc5[N+](=O)[O-])N=C4c4ccccc4)cc3)cs2)ccc1Cl`, the GI50 in the test with CAKI-1 is > 100 µM (inactive); in the test on SK-OV-3, 95.7 µM (inactive); with HCT-116 it was 74 µM (inactive); with NCI/ADR-RES, > 100 µM (inactive); with RXF 393, 63.5 µM (inactive); with NCI-H226, > 100 µM (inactive). Also, the GI50 in the test with TK-10 is > 100 µM (inactive); with SF-268, 22.6 µM (inactive); with HT-29 it was > 100 µM (inactive); in the test with HCT-15, more than 100 µM; in the test with UACC-62, 27 µM (inactive); with HL-60 it was 44.3 µM (inactive). In addition, the GI50 with MCF7 was 34.6 µM (inactive); in the test with OVCAR-4, > 100 µM (inactive); in the test with UACC-257 it was > 100 µM (inactive); in the test on CCRF-CEM, > 100 µM (inactive); with PC-3 it was 47 µM (inactive).

Regarding `Cc1n[nH]c(=O)n1/N=C/c1ccncc1`, the GI50 in the test on CAKI-1, with SK-OV-3, with HCT-116, in the test on NCI/ADR-RES, with RXF 393 and with NCI-H226 was > 100 µM (inactive) each time. Further, the GI50 with TK-10 was > 100 µM (inactive); in the test on EKVX it was > 100 µM (inactive); in the test with SF-268, > 100 µM (inactive); in the test with Hs-578T, > 100 µM (inactive); with HT-29, > 100 µM (inactive); in the test on HCT-15, more than 100 µM. Also, the GI50 in the test with UACC-62, in the test with OVCAR-4, in the test with UACC-257 and in the test with CCRF-CEM was > 100 µM (inactive) throughout.

As for `O=C(NNCc1ccccc1O)c1ccccc1O`, the GI50 in the test on CAKI-1 was 9.55 µM (inactive); in the test with SK-OV-3 it was 7.71 µM (inactive); in the test on HCT-116, 3.1 µM (inactive); in the test on NCI/ADR-RES it was 8.85 µM (inactive); in the test on RXF 393, 25.2 µM (inactive); in the test on NCI-H226, 24 µM (inactive). The GI50 with TK-10 is 31.4 µM (inactive); with EKVX, 5.89 µM (inactive); in the test on HT-29 it was 9.38 µM (inactive); in the test with HCT-15, 1.19 µM; in the test with UACC-62, 5.42 µM (inactive); with HL-60, 0.495 µM (active). Moreover, the GI50 in the test with MCF7 was 12.5 µM (inactive); in the test on OVCAR-4, 26 µM (inactive); in the test on UACC-257, 29.2 µM (inactive); with CCRF-CEM, 0.735 µM (active); in the test on PC-3 it was 24.9 µM (inactive).
